Converted amounts (≈) assume the structure as drawn.
Columns and labels:
Format in all cases: cell-based
[1] = tested on: Proteus mirabilis ATCC 4671; experiment: in vitro MIC, standard agar dilution procedure; settings: ATCC4671, read-out: Minimal Inhibitory Concentration
Shigella shiga = experiment: microbe, parasite or virus in culture; settings: Shigella, read-out: Minimal Inhibitory Concentration
[2] = tested on: Pseudomonas aeruginosa ATCC 10145; experiment: in vitro MIC, standard agar dilution procedure; settings: ATCC10145, read-out: Minimal Inhibitory Concentration
[3] = tested on: Staphylococcus aureus Smith ATCC 13709; experiment: in vitro MIC, standard agar dilution procedure; settings: ATCC13709, read-out: Minimal Inhibitory Concentration
[4] = tested on: Bacillus subtilis No. 18 Stansly R-76; experiment: in vitro MIC, standard agar dilution procedure; settings: read-out: Minimal Inhibitory Concentration
[5] = tested on: Proteus morganii ATCC 8019; experiment: in vitro MIC, standard agar dilution procedure; settings: Morganella morganii, ATCC8019, read-out: Minimal Inhibitory Concentration
[6] = tested on: Staphylococcus aureus 4050B122-3; experiment: in vitro MIC, standard agar dilution procedure; settings: 4050B1223, read-out: Minimal Inhibitory Concentration
[7] = tested on: Pseudomonas aeruginosa 1A7; experiment: in vitro MIC, standard agar dilution procedure; settings: read-out: Minimal Inhibitory Concentration
[8] = tested on: Salmonella typhosa ATCC 6539; experiment: in vitro MIC, standard agar dilution procedure; settings: Salmonella enterica, read-out: Minimal Inhibitory Concentration
[9] = tested on: Proteus vulgaris ATCC 9484; experiment: in vitro MIC, standard agar dilution procedure; settings: ATCC9484, read-out: Minimal Inhibitory Concentration
Klebsiella pneumoniae AD = experiment: in vitro MIC, standard agar dilution procedure; settings: read-out: Minimal Inhibitory Concentration
Escherichia coli No. 29 = experiment: in vitro MIC, standard agar dilution procedure; settings: read-out: Minimal Inhibitory Concentration
[10] = tested on: Corynebacterium xerosis NRRL B-1397; experiment: in vitro MIC, standard agar dilution procedure; settings: NRRLB1397, read-out: Minimal Inhibitory Concentration
[11] = tested on: Enterobacter aerogenes 75; experiment: in vitro MIC, standard agar dilution procedure; settings: Klebsiella aerogenes, read-out: Minimal Inhibitory Concentration
[12] = tested on: Bacillus subtilis No. 17 Stansly R-78; experiment: in vitro MIC, standard agar dilution procedure; settings: read-out: Minimal Inhibitory Concentration
[13] = tested on: Salmonella gallinarum 605; experiment: in vitro MIC, standard agar dilution procedure; settings: Salmonella enterica, read-out: Minimal Inhibitory Concentration
[14] = tested on: Mycobacterium smegmatis ATCC 607; experiment: in vitro MIC, standard agar dilution procedure; settings: Mycolicibacterium smegmatis, ATCC607, read-out: Minimal Inhibitory Concentration
Escherichia coli U-311 = experiment: in vitro MIC, standard agar dilution procedure; settings: U311, read-out: Minimal Inhibitory Concentration
[15] = tested on: Staphylococcus aureus Rose ATCC 14154; experiment: in vitro MIC, standard agar dilution procedure; settings: ATCC14154, read-out: Minimal Inhibitory Concentration
[16] = tested on: Streptococcus faecalis GK; experiment: in vitro MIC, standard agar dilution procedure; settings: Enterococcus faecalis, read-out: Minimal Inhibitory Concentration
Sarcina lutea ATCC 9341 = experiment: in vitro MIC, standard agar dilution procedure; settings: Micrococcus luteus, ATCC9341, read-out: Minimal Inhibitory Concentration
[17] = tested on: Bacillus cereus ATCC 9634; experiment: in vitro MIC, standard agar dilution procedure; settings: ATCC9634, read-out: Minimal Inhibitory Concentration

Compound | MIC [1] [µg/mL] | MIC (Shigella shiga) [µg/mL] | MIC [2] [µg/mL] | MIC [3] [µg/mL] | MIC [4] [µg/mL] | MIC [5] [µg/mL] | MIC [6] [µg/mL] | MIC [7] [µg/mL] | MIC [8] [µg/mL] | MIC [9] [µg/mL] | MIC (Klebsiella pneumoniae AD) [µg/mL] | MIC (Escherichia coli No. 29) [µg/mL] | MIC [10] [µg/mL] | MIC [11] [µg/mL] | MIC [12] [µg/mL] | MIC [13] [µg/mL] | MIC [14] [µg/mL] | MIC (Escherichia coli U-311) [µg/mL] | MIC [15] [µg/mL] | MIC [16] [µg/mL] | other results
CC1OC(Oc2ccc(/C=C/C(=O)NCCCNCCCCN)cc2)C(NC(=N)N)C(O)C1NC(=O)NC1OCC(OC2OCC(O)C3NC(=O)N(C(N)=O)C23)C(O)C1NC(N)=O (single isomer, unassigned) [BM123γ1] | 0.25 (≈ 0.28 µM) | 0.25 (≈ 0.28 µM) | 2.5 (≈ 2.8 µM) | 0.1 (≈ 0.112 µM) | 0.25 (≈ 0.28 µM) | 0.1 (≈ 0.112 µM) | 0.25 (≈ 0.28 µM) | 5 (≈ 5.59 µM) | 0.05 (≈ 0.0559 µM) | 0.1 (≈ 0.112 µM) | 0.05 (≈ 0.0559 µM) | 0.05 (≈ 0.0559 µM) | 0.25 (≈ 0.28 µM) | 0.1 (≈ 0.112 µM) | 0.1 (≈ 0.112 µM) | 0.1 (≈ 0.112 µM) | 0.1 (≈ 0.112 µM) | 0.1 (≈ 0.112 µM) | 0.25 (≈ 0.28 µM) | 2.5 (≈ 2.8 µM) | MIC (Sarcina lutea ATCC 9341): 0.5 µg/mL (≈ 0.559 µM); MIC [17]: 0.25 µg/mL (≈ 0.28 µM)
CC1OC(Oc2ccc(/C=C/C(=O)NCCCNCCCCN)cc2)C(NC(=N)N)C(O)C1NC(=O)NC1OCC(OC2OCC3OC(=O)NC3C2NC(N)=O)C(O)C1NC(N)=O (single isomer, unassigned) [BM123γ2] | 0.25 (≈ 0.28 µM) | 0.25 (≈ 0.28 µM) | 5 (≈ 5.59 µM) | 0.25 (≈ 0.28 µM) | 0.25 (≈ 0.28 µM) | 0.1 (≈ 0.112 µM) | 0.5 (≈ 0.559 µM) | 10 (≈ 11.2 µM) | 0.05 (≈ 0.0559 µM) | 0.1 (≈ 0.112 µM) | 0.05 (≈ 0.0559 µM) | 0.1 (≈ 0.112 µM) | 0.25 (≈ 0.28 µM) | 0.1 (≈ 0.112 µM) | 0.1 (≈ 0.112 µM) | 0.1 (≈ 0.112 µM) | 0.25 (≈ 0.28 µM) | 0.1 (≈ 0.112 µM) | 0.25 (≈ 0.28 µM) | 2.5 (≈ 2.8 µM) | MIC (Sarcina lutea ATCC 9341): 1 µg/mL (≈ 1.12 µM); MIC [17]: 0.5 µg/mL (≈ 0.559 µM)

— patent US4007167A, “Antibiotic BM123 and production thereof” (American Cyanamid Company, priority 1975, dated 1977)
